# Reference: patent US11667630B2, “Nitrogen-containing 6-membered cyclic compound” (Asahi Kasei Pharma Corporation, priority 2017, dated 2023)
# System: rat femur
# Experiment: Neo-osteogenesis action in rat femur
# Assay type: in vivo
# Conditions: female SD rats, 100 μg test compound in in situ-solidified gel solution injected between quadriceps and periosteum, one week after administration
# Method: Eight weeks old female SD rats (Charles River Japan) were fixed in the side lying position under triple anesthesia (medetomidine hydrochloride, midazolam, and butorphanol tartrate). After hair of the left femoral region was shaved with a hair clipper, and disinfection treatment was performed with 70% ethanol, an in situ-solidified gel solution of a test compound, specifically, a test compound dissolved in poly(lactic-co-glycolic acid) (RESOMER RG502H, produced by Evonik Industries)/poly(lactic-co-glycolic acid)-polyethylene glycol block copolymer (5050 DLG mPEG 5000, produced by Lakeshore Biomaterials)/N-methyl-2-pyrroridone (produced by Wako) (weight ratio 47%/3%/50%), was filled in a 1-mL syringe, a 21G injection needle was attached to the syringe, and the needle was transdermally stabbed from the quadriceps to the periosteum near the center of the femoral diaphyseal. Then, 100 μg as the amount of the test compound, or 50 μL as the administration volume of the solution was injected between the quadriceps and the periosteum, and the injection needle was drawn out. To the rats of the control group, the aforementioned in situ-solidified gel solution alone was administered. One week after the administration of the drug solution, the triple anesthesia was given to the animals, and they were fixed in the supine position, and euthanized by bleeding. […], circumferential tissues such as muscles were removed, the bone mineral content of the whole femur was measured by using a bone mineral analyzer DCS-600EX (produced by ALOKA), then it was divided into three portions along the long axis, and the bone mineral content of the center part (diaphysis) was evaluated. The test was performed with the groups each consisting of 6 animals.
row,SMILES,Bone mineral content of femur 1/3 center region (mg) Left femur (administered with compound)
1,"O=C(O)c1ccc(CCN2C(=O)SCCN2CCC(O)Cc2cccc(C#Cc3cccs3)c2)s1 (centres unmarked) [Example 3, 5-(2-(4-(3-Hydroxy-4-(3-(thiophen-2-ylethynyl)phenyl)butyl)-2-oxo-1,3,4-thiadiazinan-3-yl)ethyl)thiophene-2-carboxylic acid]",80.2 ± 2.6 mg
2,"N#Cc1sccc1C#Cc1cccc(CC(O)CCN2CCSC(=O)N2CCc2ccc(C(=O)O)s2)c1 (centres unmarked) [Example 8, 5-(2-(4-(4-(3-((2-Cyanothiophen-3-yl)ethynyl)phenyl)-3-hydroxybutyl)-2-oxo-1,3,4-thiadiazinan-3-yl)ethyl)thiophene-2-carboxylic acid]",98.7 ± 4.1 mg
3,"N#Cc1sccc1C#Cc1cccc(C[C@H](O)CCN2CCSC(=O)N2CCc2ccc(C(=O)O)s2)c1 [Example 24, (S)-5-(2-(4-(4-(3-((2-Cyanothiophen-3-yl)ethynyl)phenyl)-3-hydroxybutyl)-2-oxo-1,3,4-thiadiazinan-3-yl)ethyl)thiophene-2-carboxylic acid]",80.7 ± 4.0 mg

# Same assay, conditions: female SD rats, contralateral femur, 100 μg test compound given at left femur, one week after administration
row,SMILES,Bone mineral content of femur 1/3 center region (mg) Right femur (no administration of compound)
1,"O=C(O)c1ccc(CCN2C(=O)SCCN2CCC(O)Cc2cccc(C#Cc3cccs3)c2)s1 (centres unmarked) [Example 3, 5-(2-(4-(3-Hydroxy-4-(3-(thiophen-2-ylethynyl)phenyl)butyl)-2-oxo-1,3,4-thiadiazinan-3-yl)ethyl)thiophene-2-carboxylic acid]",66.7 ± 2.7 mg

# Target: human EP4 receptor (Homo sapiens, UniProt P35408)
# Sequence (P35408 whole entry): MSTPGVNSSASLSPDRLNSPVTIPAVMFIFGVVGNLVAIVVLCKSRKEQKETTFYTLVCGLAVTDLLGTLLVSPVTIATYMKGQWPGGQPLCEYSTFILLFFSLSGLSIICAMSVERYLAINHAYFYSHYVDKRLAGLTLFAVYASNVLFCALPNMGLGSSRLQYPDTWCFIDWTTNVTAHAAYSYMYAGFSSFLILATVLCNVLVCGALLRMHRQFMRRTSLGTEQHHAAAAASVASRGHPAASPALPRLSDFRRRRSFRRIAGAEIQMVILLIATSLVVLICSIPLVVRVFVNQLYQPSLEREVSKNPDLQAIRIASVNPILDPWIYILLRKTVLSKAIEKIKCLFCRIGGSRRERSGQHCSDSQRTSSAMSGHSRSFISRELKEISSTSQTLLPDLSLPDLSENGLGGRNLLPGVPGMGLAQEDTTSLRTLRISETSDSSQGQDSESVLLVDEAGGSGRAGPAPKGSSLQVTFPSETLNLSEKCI
# Experiment: Measurement of EP4 agonist activity (cAMP production)
# Assay type: cell-based
# Set-up: expressed in transfected cells; host or cells: HEK293
# Conditions: cAMP production in HEK293 cells stably expressing human EP4 receptor; average values where measured two or more times
# Method: In order to investigate EP4 receptor agonist activity of the compounds of the present invention, production of cAMP was measured in HEK293 cells that were made to stably express the human EP4 receptor.
# By using Refseq Database, prostaglandin E receptor was searched for. As a result, gene information of human EP4 (NM_000958) receptor was obtained. On the basis of this sequence information, the human EP4 receptor gene was cloned by PCR in a conventional manner using human cDNA as the template, and HEK293 cells that were made to stably express the human EP4 receptor were established. When cryopreserved cells of this strain were thawed and used, cells subcultured three times or more within a certain period of time (about 1 to 2 weeks) by using Dulbecco's Modified Eagle's Medium (Dulbecco's Modified Eagle's Medium may be henceforth abbreviated as DMEM) containing 10% FBS, 50 units each of penicillin and streptomycin were used. The subcultured cells were inoculated in wells of a poly-D-lysine-coated 96-well plate at a density of 2×10^4 to 2.5×10^4 cells/well, and cultured for one day. The medium in the wells was removed by suction, then DMEM (80 μL) was added to each well, and incubation was performed at 37° C. for 15 minutes. […] The reaction was allowed at 37° C. for 30 minutes, then the medium was removed by suction, Assay/Lysis Buffer (100 μL) contained in cAMP Screen Kit (produced by Applied Biosystems) was added to terminate the reaction. Then, the reaction mixture was incubated at 37° C. for 30 minutes to prepare a sample for quantification of cAMP, and the amount of cAMP in the sample was quantified according to the method indicated in cAMP Screen Kit. By non-linear regression of the compound concentration and the amount of cAMP, the concentration of the compound required for increasing cAMP to 50% of the maximum increase (EC50 value) was calculated by using the Kaleida Graph.
row,EC50,SMILES
1,0.34 nM,"Cc1cscc1C#Cc1cccc(CC(O)CCN2CCSC(=O)N2CCc2ccc(C(=O)O)s2)c1 (centres unmarked) [Example 4, 5-(2-(4-(3-Hydroxy-4-(3-((4-methylthiophen-3-yl)ethynyl)phenyl)butyl)-2-oxo-1,3,4-thiadiazinan-3-yl)ethyl)thiophene-2-carboxylic acid]"
2,0.3 nM,"O=C(O)c1ccc(CCN2C(=O)SCCN2CCC(O)Cc2cccc(C#Cc3ccsc3Cl)c2)s1 (centres unmarked) [Example 5, 5-(2-(4-(4-(3-((2-Chlorothiophen-3-yl)ethynyl)phenyl)-3-hydroxybutyl)-2-oxo-1,3,4-thiadiazinan-3-yl)ethyl)thiophene-2-carboxylic acid]"
3,0.6 nM,"N#Cc1cc(C#Cc2cccc(CC(O)CCN3CCSC(=O)N3CCc3ccc(C(=O)O)s3)c2)cs1 (centres unmarked) [Example 12, 5-(2-(4-(4-(3-((5-Cyanothiophen-3-yl)ethynyl)phenyl)-3-hydroxybutyl)-2-oxo-1,3,4-thiadiazinan-3-yl)ethyl)thiophene-2-carboxylic acid]"
4,0.3 nM,"N#Cc1ccsc1C#Cc1cccc(CC(O)CCN2CCSC(=O)N2CCc2ccc(C(=O)O)s2)c1 (centres unmarked) [Example 14, 5-(2-(4-(4-(3-((3-Cyanothiophen-2-yl)ethynyl)phenyl)-3-hydroxybutyl)-2-oxo-1,3,4-thiadiazinan-3-yl)ethyl)thiophene-2-carboxylic acid]"
5,0.026 nM,"O=C(O)c1cc(Cl)c(CCN2C(=O)SCCN2CCC(O)Cc2cccc(C#Cc3ccsc3)c2)s1 (centres unmarked) [Example 17, 4-Chloro-5-(2-(4-(3-hydroxy-4-(3-(thiophen-3-ylethynyl)phenyl)butyl)-2-oxo-1,3,4-thiadiazinan-3-yl)ethyl)thiophene-2-carboxylic acid]"
6,0.5 nM,"O=C(O)c1ccc(CCN2C(=O)SCCN2CCC(O)Cc2cccc(C#Cc3cscc3-c3ccccc3)c2)s1 (centres unmarked) [Example 21, 5-(2-(4-(3-Hydroxy-4-(3-((4-phenylthiophen-3-yl)ethynyl)phenyl)butyl)-2-oxo-1,3,4-thiadiazinan-3-yl)ethyl)thiophene-2-carboxylic acid]"
7,0.09 nM,"O=C(O)c1ccc(CCN2C(=O)SCCN2CCC(O)Cc2cccc(/C=C/c3ccsc3)c2)s1 (centres unmarked) [Example 27, (E)-5-(2-(4-(3-Hydroxy-4-(3-(2-(thiophen-3-yl)vinyl)phenyl)butyl)-2-oxo-1,3,4-thiadiazinan-3-yl)ethyl)thiophene-2-carboxylic acid]"

# Second part, the molecule before the results:
row,SMILES,EC50
1,"O=C(O)c1ccc(CCN2C(=O)SCCN2CCC(O)Cc2cccc(Br)c2)cc1 (centres unmarked) [Comparative Example 1, 4-(2-(4-(4-(3-Bromophenyl)-3-hydroxybutyl)-2-oxo-1,3,4-thiadiazinan-3-yl)ethyl)benzoic acid, reference compound]",2.5 nM
2,"O=C(O)c1ccc(CCN2C(=O)SCCN2CCC(O)Cc2cccc(C#Cc3ccsc3)c2)s1 (centres unmarked) [Example 1, 5-(2-(4-(3-Hydroxy-4-(3-(thiophen-3-ylethynyl)phenyl)butyl)-2-oxo-1,3,4-thiadiazinan-3-yl)ethyl)thiophene-2-carboxylic acid]",0.045 nM
3,"O=C(O)c1cc(Br)c(CCN2C(=O)SCCN2CCC(O)Cc2cccc(C#Cc3ccsc3)c2)s1 (centres unmarked) [Example 2, 4-Bromo-5-(2-(4-(3-hydroxy-4-(3-(thiophen-3-ylethynyl)phenyl)butyl)-2-oxo-1,3,4-thiadiazinan-3-yl)ethyl)thiophene-2-carboxylic acid]",0.035 nM
4,"O=C(O)c1ccc(CCN2C(=O)SCCN2CCC(O)Cc2cccc(C#Cc3cccs3)c2)s1 (centres unmarked) [Example 3, 5-(2-(4-(3-Hydroxy-4-(3-(thiophen-2-ylethynyl)phenyl)butyl)-2-oxo-1,3,4-thiadiazinan-3-yl)ethyl)thiophene-2-carboxylic acid]",0.13 nM
5,"N#Cc1cscc1C#Cc1cccc(CC(O)CCN2CCSC(=O)N2CCc2ccc(C(=O)O)s2)c1 (centres unmarked) [Example 7, 5-(2-(4-(4-(3-((4-Cyanothiophen-3-yl)ethynyl)phenyl)-3-hydroxybutyl)-2-oxo-1,3,4-thiadiazinan-3-yl)ethyl)thiophene-2-carboxylic acid]",0.09 nM
6,"O=C(O)c1ccc(CCN2C(=O)SCCN2CCC(O)Cc2cccc(C#Cc3cscn3)c2)s1 (centres unmarked) [Example 9, 5-(2-(4-(3-Hydroxy-4-(3-(thiazol-4-ylethynyl)phenyl)butyl)-2-oxo-1,3,4-thiadiazinan-3-yl)ethyl)thiophene-2-carboxylic acid]",0.09 nM
7,"O=C(O)c1ccc(CCN2C(=O)SCCN2CCC(O)Cc2cccc(C#Cc3ccco3)c2)s1 (centres unmarked) [Example 11, 5-(2-(4-(4-(3-(Furan-2-ylethynyl)phenyl)-3-hydroxybutyl)-2-oxo-1,3,4-thiadiazinan-3-yl)ethyl)thiophene-2-carboxylic acid]",0.09 nM
8,"O=C(O)c1ccc(CCN2C(=O)SCCN2CCC(O)Cc2cccc(C#Cc3ccccc3)c2)s1 (centres unmarked) [Example 15, 5-(2-(4-(3-Hydroxy-4-(3-(phenylethynyl)phenyl)butyl)-2-oxo-1,3,4-thiadiazinan-3-yl)ethyl)thiophene-2-carboxylic acid]",0.63 nM
9,"COc1ccccc1C#Cc1cccc(CC(O)CCN2CCSC(=O)N2CCc2ccc(C(=O)O)s2)c1 (centres unmarked) [Example 16, 5-(2-(4-(3-Hydroxy-4-(3-((2-methoxyphenyl)ethynyl)phenyl)butyl)-2-oxo-1,3,4-thiadiazinan-3-yl)ethyl)thiophene-2-carboxylic acid]",0.4 nM
10,"Cc1ccc(CC(O)CCN2CCSC(=O)N2CCc2ccc(C(=O)O)s2)cc1C#Cc1ccsc1 (centres unmarked) [Example 18, 5-(2-(4-(3-Hydroxy-4-(4-methyl-3-(thiophen-3-ylethynyl)phenyl)butyl)-2-oxo-1,3,4-thiadiazinan-3-yl)ethyl)thiophene-2-carboxylic acid]",0.1 nM
11,"O=C(O)c1cc(Cl)c(CCN2C(=O)SCCN2CCC(O)Cc2cccc(C#Cc3ccccn3)c2)s1 (centres unmarked) [Example 28, 4-Chloro-5-(2-(4-(3-hydroxy-4-(3-(pyridin-2-ylethynyl)phenyl)butyl)-2-oxo-1,3,4-thiadiazinan-3-yl)ethyl)thiophene-2-carboxylic acid]",0.087 nM
12,"O=C(O)c1ccc(CCN2C(=O)OCCN2CCC(O)Cc2cccc(C#Cc3ccsc3)c2)s1 (centres unmarked) [Example 29, 5-(2-(4-(3-Hydroxy-4-(3-(thiophen-3-ylethynyl)phenyl)butyl)-2-oxo-1,3,4-oxadiazinan-3-yl)ethyl)thiophene-2-carboxylic acid]",0.16 nM
